This is an account of results in PubChem BioAssay (NCI).

Among the test systems are MCF7 breast; BT-549 breast; T-47D breast; DU-145 prostate; MDA-MB-231 breast; MDA-MB-435.
Assay in all cases: NCI tumour cell line growth inhibition, 48 h

SMILES strings stand for the structures. “And” between values parts separate entries of the source, which are not always exact repeats. Identical values can stand only once.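 Cells were grown in 96-well plates and exposed to each compound for 48 hours at five concentrations; endpoints were interpolated linearly between bracketing concentrations, or set to the highest concentration if not reached. Here, GI50 denotes the concentration required for 50% inhibition of growth. TGI: concentration producing complete growth inhibition.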 A value given as a limit tells only on which side of the number the result lay.

In the case of `CCN1C(=O)N(CC)C2C1NN=c1s/c(=C\c3ccc([N+](=O)[O-])cc3)c(=O)n12` (centres undefined), the GI50 in the experiment with MCF7 breast is 315 nM; with BT-549 breast, 1.55 µM; with T-47D breast, 575 nM; in the experiment on DU-145 prostate, 0.424 µM; with MDA-MB-231 breast, 1.42 µM. Moreover, the TGI in the experiment on MCF7 breast was over 100 µM; in the experiment with BT-549 breast, 16.5 µM; with T-47D breast, over 100 µM; in the experiment on DU-145 prostate, over 100 µM; in the experiment with MDA-MB-231 breast it was over 44.2 µM.

Turning to `Cn1cc(-c2nonc2-c2cn(C)c3ccc(Br)cc23)c2ccccc21`, the GI50 in the experiment with MCF7 breast is 2830 nM; in the experiment with BT-549 breast it was 6.17 µM; in the experiment on DU-145 prostate, 4.09 µM; in the experiment with MDA-MB-231 breast it was 3.67 µM. Besides, the TGI with MCF7 breast, in the experiment with BT-549 breast, in the experiment with DU-145 prostate and in the experiment on MDA-MB-231 breast was over 100 µM each time.

In the case of `COC(=O)C1(C)CCc2c(ccc3ccccc23)C1=O` (centres undefined), the TGI in the experiment on MCF7 breast is 81.2 µM; in the experiment on MDA-MB-435, over 100 µM; in the experiment with BT-549 breast it was 64 µM; with T-47D breast it was 72.8 µM; in the experiment on DU-145 prostate it was over 100 µM; with MDA-MB-231 breast, over 100 µM.

For the compound `CC1OC(OC2C(OC3CCC4(C)C(CCC5(C)C4CC=C4C6CC(C)(C)CCC6(CO)C(O)CC45C)C3(C)C)OC(C(=O)O)C(OC3OC(COC4OC(CO)C(O)C(O)C4O)C(O)C(O)C3O)C2O)C(O)C(O)C1O` (centres undefined), the GI50 in the experiment on MCF7 breast was 11400 nM; in the experiment with MDA-MB-435, 4.34 µM; in the experiment on BT-549 breast it was 1.15 µM; with T-47D breast, 12300 nM; in the experiment on DU-145 prostate it was 13.4 µM; in the experiment with MDA-MB-231 breast, 10.8 µM. The TGI in the experiment on MCF7 breast was determined as 24.2 µM; in the experiment on MDA-MB-435, 14.7 µM; in the experiment on BT-549 breast, 2.49 µM; with T-47D breast, 27.8 µM; in the experiment on DU-145 prostate, 25.1 µM; with MDA-MB-231 breast, 21.8 µM.

For `Oc1ccc(-c2nc(-c3ccc(F)cc3)c(-c3ccncc3)[nH]2)cc1`, the GI50 in the experiment with MCF7 breast is 19400 nM; in the experiment with MDA-MB-435, 6.8 µM; in the experiment with BT-549 breast, 17.7 µM; in the experiment on T-47D breast it was 8750 nM; in the experiment on DU-145 prostate it was 15.4 µM; in the experiment with MDA-MB-231 breast it was 11.2 µM. In addition, the TGI in the experiment with MCF7 breast is over 100 µM; in the experiment on MDA-MB-435, 35.1 µM; with BT-549 breast, 64 µM; with T-47D breast, 63 µM; in the experiment with DU-145 prostate, over 100 µM; in the experiment with MDA-MB-231 breast, over 100 µM.

As for `Cn1cccc1C1CC(=O)N(CCC[Se]C#N)C1=O` (centres undefined), the GI50 in the experiment on MCF7 breast was 2850 nM; in the experiment with MDA-MB-435, 1.78 µM; in the experiment on T-47D breast, 2780 nM; in the experiment with DU-145 prostate, 1.81 µM. Also, the TGI worked out at 14.6 µM in the experiment with MCF7 breast, 3.48 µM in the experiment with MDA-MB-435, 12.8 µM with T-47D breast and 3.78 µM in the experiment with DU-145 prostate.

In the case of `O=[N+]([O-])c1ccc([I+]c2ccccc2)cc1`, the GI50 in the experiment with MCF7 breast is 2240 nM; in the experiment with MDA-MB-435 it was 1.85 µM; in the experiment with BT-549 breast, 1.63 µM; with T-47D breast, 1300 nM; with DU-145 prostate, 2.25 µM; with MDA-MB-231 breast, 2.1 µM. Besides, the TGI is 10.3 µM and 8.25 µM with MCF7 breast; 23.3 µM and 4.33 µM with MDA-MB-435; 8.12 µM and 3.09 µM with BT-549 breast; 26 µM and 5.04 µM with T-47D breast; 25 µM and 6.35 µM in the experiment with DU-145 prostate; 12.9 µM and 4.9 µM in the experiment with MDA-MB-231 breast.

On to `C=C1CCC2C3(C)COC(c4cccc(Cl)c4)OC3CCC2(C)C1/C=C/C1=CCOC1=O` (centres undefined), for which the GI50 was 3800 nM in the experiment with MCF7 breast; 9.68 µM in the experiment with MDA-MB-435; 6.21 µM in the experiment with BT-549 breast; 1830 nM with T-47D breast; over 100 µM in the experiment with DU-145 prostate; 6.84 µM in the experiment on MDA-MB-231 breast. For the same compound, the TGI in the experiment with MCF7 breast, in the experiment on MDA-MB-435, in the experiment with BT-549 breast, with T-47D breast, with DU-145 prostate and in the experiment on MDA-MB-231 breast was over 100 µM each time.

As to `CC(=O)C(CN1CCOCC1)C(c1ccccc1)c1c(O)c2ccccc2oc1=O` (centres undefined), the TGI in the experiment on MCF7 breast, in the experiment with MDA-MB-435, in the experiment on BT-549 breast, in the experiment with T-47D breast, with DU-145 prostate and in the experiment with MDA-MB-231 breast was over 100 µM each time.

For `COc1cc2c(c(Br)c1N)-c1cc(Br)c(N)cc1C2=O`, the GI50 with MCF7 breast is 131 nM; in the experiment with MDA-MB-435, over 100 µM; in the experiment on BT-549 breast it was over 24.8 µM; in the experiment with T-47D breast, 307 nM; with DU-145 prostate, 59.8 µM; in the experiment with MDA-MB-231 breast it was 3.07 µM. Moreover, the TGI with MCF7 breast is over 100 µM; in the experiment on MDA-MB-435, over 100 µM; with BT-549 breast it was over 100 µM; with T-47D breast it was over 100 µM; in the experiment on DU-145 prostate, over 100 µM; in the experiment on MDA-MB-231 breast, over 81 µM.

On to `c1ccc2c(c1)SCCCSCCCS2`, for which the TGI in the experiment with MCF7 breast, in the experiment on MDA-MB-435, in the experiment with BT-549 breast, in the experiment with T-47D breast, with DU-145 prostate and in the experiment on MDA-MB-231 breast was over 100 µM each time.

Take `Cc1ccc2c(c1)/C(=N\N=C/c1cn(C(C)C)c3ccccc13)C(=O)N2`: the GI50 in the experiment on MCF7 breast was 504 nM; in the experiment with MDA-MB-435, 2.16 µM; in the experiment on BT-549 breast it was 3.58 µM; in the experiment on T-47D breast, 953 nM; in the experiment with DU-145 prostate, 8.17 µM; in the experiment on MDA-MB-231 breast it was 1.25 µM. The TGI with MCF7 breast was over 100 µM; in the experiment with MDA-MB-435 it was 10.3 µM; with BT-549 breast it was over 100 µM; in the experiment on T-47D breast, over 100 µM; in the experiment with DU-145 prostate, over 100 µM; in the experiment with MDA-MB-231 breast it was 5.83 µM.

Turning to `COC12c3ccccc3-c3ccccc3C1[C@@H](C(=O)O)[C@H]2C(=O)O` (some centres undefined), the TGI in the experiment on MCF7 breast, in the experiment with MDA-MB-435, with T-47D breast, with DU-145 prostate and in the experiment with MDA-MB-231 breast was over 10 µM in each case.

For the compound `CCOC(=O)c1c(-c2ccccc2)[nH]c2ccccc2c1=O`, the TGI with MCF7 breast, in the experiment on T-47D breast and in the experiment on DU-145 prostate was over 100 µM each time.

For the compound `C/C=C(\C)C(=O)O[C@@H]1C=CC(=O)O[C@H]1COC(=O)[C@H](C)O`, the GI50 was 4530 nM with MCF7 breast; 15.2 µM in the experiment on MDA-MB-435; 4640 nM in the experiment on T-47D breast; 10.8 µM in the experiment with DU-145 prostate; 13.7 µM with MDA-MB-231 breast. Further, the TGI in the experiment on MCF7 breast was 18.3 µM; in the experiment on MDA-MB-435 it was 71.6 µM; in the experiment with T-47D breast, 25.6 µM; with DU-145 prostate it was 31.8 µM; in the experiment with MDA-MB-231 breast it was 29.1 µM.
